Where two headings read alike, the source gives them in different places.
Key:
Botrytis cinerea = experiment: Fungicidal efficacy trial (% control) on Botrytis cinerea, synergy by Colby's equation; format: cell-based; conditions: concentration 0.01 mg/L, observed efficacy
Text: [table] Colby's equation was used to determine the fungicidal effects expected from the mixtures. The following equation was used to calculate the expected activity of mixtures containing two active ingredients, A and B: Expected=A+B−(A×B/100) • A=observed efficacy of active component A at the same concentration as used in the mixture; • B=observed efficacy of active component B at the same concentration as used in the mixture.

[1] = tested on: spores of Botrytis cinerea; experiment: EC50 for in vitro inhibition of 50% of fungal population of spores of Botrytis cinerea; format: cell-based
Protocol: As used herein, according to the Fungicide Resistance Action Committee (FRAC), ‘EC50’ is defined as the fungicide dose that inhibits growth by 50% when compared with a nonamended control.
The EC50 values were evaluated to determine a lower concentration of the fungicides and the combination to achieve in vitro inhibition of 50% of fungal population of spores of Botrytis cinerea.

Structure (SMILES) | % control (Botrytis cinerea) | EC50 ([1]; read-out: EC50) | EC50 [1]
O=C1C2CC=CCC2C(=O)N1SC(Cl)(Cl)Cl (stereo not shown) [Captan] | 11.54% | 0.15 µg/mL | –
COc1ccnc(C(=O)N[C@H]2COC(=O)[C@H](Cc3ccccc3)[C@@H](OC(=O)C(C)C)[C@H](C)OC2=O)c1OCOC(=O)C(C)C [Fenpicoxamide] | 15.45% | – | 0.46 µg/mL

— patent publication US20230371515A1, “FUNGICIDAL COMBINATION” (UPL Limited, priority 2020, published 2023)
